Where only a bound is given, the exact number is not on record here.

One test addresses Human KLK1 (Homo sapiens (Human), UniProt P06870). As to the kind of experiment: Determination of the IC50 for KLK1. The test is classed as biochemical. The conditions noted are these: human KLK1, 25° C., substrate H-DVal-Leu-Arg-AFC. As for the experimental part: Determination of the IC50 for KLK1
Human KLK1 (Callbiochem) was incubated at 25° C. with the fluorogenic substrate H-DVal-Leu-Arg-AFC and various concentrations of the test compound. Residual enzyme activity (initial rate of reaction) was determined by measuring the change in […] at 410 nm and the IC50 value for the test compound was determined.

The next test deals with Human plasma kallikrein (Homo sapiens (Human), UniProt P03952). As to the kind of experiment: Determination of the IC50 for plasma kallikrein. In kind it is biochemical. The note with it: read-out: IC50 (human PKal). As for the experimental part:
Determination of the IC50 for Plasma Kallikrein
Human plasma kallikrein (Protogen) was incubated at 25° C. with the fluorogenic substrate H-DPro-Phe-Arg-AFC and various concentrations of the test compound. Residual enzyme activity (initial rate of reaction) was determined by measuring the change in […] at 410 nm and the IC50 value for the test compound was determined.

Sequence of Human KLK1 (P06870 25-262): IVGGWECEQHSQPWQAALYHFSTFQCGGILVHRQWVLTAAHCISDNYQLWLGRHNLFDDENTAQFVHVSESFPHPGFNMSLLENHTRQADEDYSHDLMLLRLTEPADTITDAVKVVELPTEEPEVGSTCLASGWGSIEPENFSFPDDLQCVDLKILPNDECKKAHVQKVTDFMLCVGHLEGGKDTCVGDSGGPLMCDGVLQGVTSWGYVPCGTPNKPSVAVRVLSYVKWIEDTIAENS
Sequence of Human plasma kallikrein (P03952 391-638): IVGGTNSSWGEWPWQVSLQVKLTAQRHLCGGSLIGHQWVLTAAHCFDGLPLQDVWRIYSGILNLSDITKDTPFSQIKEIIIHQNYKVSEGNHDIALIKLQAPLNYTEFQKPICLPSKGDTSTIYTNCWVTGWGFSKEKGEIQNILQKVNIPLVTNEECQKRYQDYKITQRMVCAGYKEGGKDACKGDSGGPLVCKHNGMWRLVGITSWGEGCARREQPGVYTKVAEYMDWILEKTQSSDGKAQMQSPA
Sequence of Human plasma kallikrein (P03952 20-390 partner): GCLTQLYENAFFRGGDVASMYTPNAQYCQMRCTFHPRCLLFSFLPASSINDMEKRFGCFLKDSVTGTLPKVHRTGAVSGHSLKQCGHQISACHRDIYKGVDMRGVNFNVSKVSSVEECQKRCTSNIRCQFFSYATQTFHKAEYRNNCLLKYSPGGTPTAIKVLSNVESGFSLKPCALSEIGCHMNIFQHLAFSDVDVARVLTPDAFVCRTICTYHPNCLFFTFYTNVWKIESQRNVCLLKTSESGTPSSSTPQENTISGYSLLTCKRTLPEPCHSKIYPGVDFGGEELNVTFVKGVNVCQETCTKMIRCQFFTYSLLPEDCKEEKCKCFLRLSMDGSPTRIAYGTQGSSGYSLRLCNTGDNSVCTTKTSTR

By IC50 is commonly meant the concentration needed to halve the response being measured. As to `N#Cc1nn(Cc2ccc(Cn3ccccc3=O)cc2)cc1C(=O)NCCOc1cccc(Cl)c1` [Example 38, N-[2-(3-chlorophenoxy)ethyl]-3-cyano-1-({4-[(2-oxopyridin-1-yl)methyl]phenyl}methyl)pyrazole-4-carboxamide], the figures for the IC50 against Human KLK1 and on Human plasma kallikrein were over 40 µM and 0.0065 µM, respectively.

On to `Nc1nn(Cc2ccc(C(=O)N3CCCCC3)cc2)cc1C(=O)NCCOc1cccc(Cl)c1` [Example 60, 3-amino-N-[2-(3-chlorophenoxy)ethyl]-1-({4-[(piperidin-1-yl)carbonyl]phenyl}methyl)pyrazole-4-carboxamide], for which the half-inhibitory concentration (IC50) against Human KLK1 is over 40 µM; on Human plasma kallikrein, over 10 µM.

Take `CNC(=O)c1cccc(Cn2cc(C(=O)NCCOc3cccc(Cl)c3)c(N)n2)c1` [Example 64, 3-amino-N-[2-(3-chlorophenoxy)ethyl]-1-{[3-(methylcarbamoyl)phenyl]methyl}pyrazole-4-carboxamide]: the IC50 at Human KLK1 is over 40 µM; at Human plasma kallikrein it was over 10 µM.

Regarding `CN(CC(=O)O)c1cc(Cn2cc(C(=O)NCCOc3cccc(Cl)c3)c(N)n2)ccn1` [Example 67, ({4-[(3-amino-4-{[2-(3-chlorophenoxy)ethyl]carbamoyl}pyrazol-1-yl)methyl]pyridin-2-yl}(methyl)amino)acetic acid], the IC50 against Human KLK1 is over 40 µM; at Human plasma kallikrein, over 10 µM.

On to `Nc1nn(Cc2ccc(N3CCCC3=O)nc2)cc1C(=O)NCCOc1cccc(Cl)c1` [Example 96, 3-amino-N-[2-(3-chlorophenoxy)ethyl]-1-{[6-(2-oxopyrrolidin-1-yl)pyridin-3-yl]methyl}pyrazole-4-carboxamide], for which the figures for the IC50 against Human KLK1 and on Human plasma kallikrein were over 40 µM and 2.23 µM, respectively.

Consider `CN(C)C(=O)c1cccc(Cn2cc(C(=O)NCCOc3cccc(Cl)c3)c(N)n2)c1` [Example 65, 3-amino-N-[2-(3-chlorophenoxy)ethyl]-1-{[3-(dimethylcarbamoyl)phenyl]methyl}pyrazole-4-carboxamide], for which the IC50 against Human KLK1 is over 40 µM; on Human plasma kallikrein, over 10 µM.

`COCc1nn(Cc2ccc(Cn3ccccc3=O)cc2)cc1C(=O)NCCOc1cc(Cl)cnn1` [Example 46, N-{2-[(5-chloropyridazin-3-yl)oxy]ethyl}-3-(methoxymethyl)-1-({4-[(2-oxopyridin-1-yl)methyl]phenyl}methyl)pyrazole-4-carboxamide]: the half-maximal inhibitory concentration (IC50) on Human KLK1 and at Human plasma kallikrein was over 10 µM in each case.

In the case of `Cc1nn(Cc2ccc(Cn3ccccc3=O)cc2)c(C)c1C(=O)NCCOc1cccc(Cl)c1` [Example 103, N-[2-(3-chlorophenoxy)ethyl]-3,5-dimethyl-1-({4-[(2-oxopyridin-1-yl)methyl]phenyl}methyl)pyrazole-4-carboxamide], the 50% inhibitory concentration (IC50) is over 40 µM against Human KLK1 and over 10 µM at Human plasma kallikrein.

As for `Cc1nc(C(=O)NCCOc2cccc(Cl)c2)cn1Cc1ccc(Cn2ccccc2=O)cc1` [Example 43, N-[2-(3-chlorophenoxy)ethyl]-2-methyl-1-({4-[(2-oxopyridin-1-yl)methyl]phenyl}methyl)imidazole-4-carboxamide], the figures for the 50% inhibitory concentration (IC50) against Human KLK1 and at Human plasma kallikrein were over 10 µM and 0.077 µM, respectively.

As for `COc1cc(Cn2cc(C(=O)NCCOc3cccc(Cl)c3)c(N)n2)ccc1Cn1ccccc1=O` [Example 98, 3-amino-N-[2-(3-chlorophenoxy)ethyl]-1-({3-methoxy-4-[(2-oxopyridin-1-yl)methyl]phenyl}methyl)pyrazole-4-carboxamide], the figures for the IC50 against Human KLK1 and at Human plasma kallikrein were over 40 µM and 0.0094 µM, respectively.

`Nc1nn(Cc2ccc(Cn3ccccc3=O)cn2)cc1C(=O)NCCOc1cccc(Cl)c1` [Example 102, 3-amino-N-[2-(3-chlorophenoxy)ethyl]-1-({5-[(2-oxopyridin-1-yl)methyl]pyridin-2-yl}methyl)pyrazole-4-carboxamide]: the half-inhibitory concentration (IC50) at Human KLK1 was over 40 µM; at Human plasma kallikrein it was 0.0721 µM.

Take `Nc1nn(Cc2ccnc(N3CCCC3=O)c2)cc1C(=O)NCCOc1cccc(Cl)c1` [Example 94, 3-amino-N-[2-(3-chlorophenoxy)ethyl]-1-{[2-(2-oxopyrrolidin-1-yl)pyridin-4-yl]methyl}pyrazole-4-carboxamide]: the IC50 at Human KLK1 is over 40 µM; at Human plasma kallikrein, 3.14 µM.

The values above are taken from US10781181B2, “N-((het) arylmethyl)-heteroaryl-carboxamides compounds as plasma kallikrein inhibitors” (Kalvista Pharmaceuticals Limited, priority 2014, dated 2020).
